# Laboratory results reported in patent US20170071208A1, “COMPOSITIONS FOR MOSQUITO CONTROL AND USES OF SAME” (Forrest Innovations Ltd., priority 2014, published 2017).
# Assays:
# Assay type in all cases: in vivo, Aedes aegypti
# [1] = tested on: Ae. aegypti mosquitoes (RJ strain); experiment: dsRNA treatment of larvae (soaking, or soaking plus feeding), then pyrethroid adulticide bottle bioassay of adult females
# Method: (§1) Third instar larvae were treated (in groups of 100 larvae) in a final volume of 3 mL of dsRNA solution in autoclaved water (0.5 μg/μL for sodium channel (AAEL008297), PgP (AAEL010379) and Ago3 (AAEL007823) dsRNA, or 0.1 μg/μL for CYP9J26 (JF924909.1). The control group was kept in 3 ml sterile water only. Larvae were soaked in the dsRNA solutions for 24 hr at 27° C., and then transferred into new containers (300 larvae/1500 mL of chlorine-free tap water), which were also maintained at 27° C., and were provided 6 mg/100 mL lab dog/cat diet (Purina Mills) suspended in water as a source of food on a daily basis. As pupae developed, they were transferred to individual vials to await eclosion and sex sorting. For bioassays purpose only females up to five days old were used. See Flowchart 1, FIG. 1 for detailed explanation of this experiment.
# After soaking in the dsRNA solutions for 24 hr at 27° C., the larvae were transferred into new containers (300 larvae/1500 mL of chlorine-free tap water), and were provided agarose cubes containing 300 μg of dsRNA once a day for a total of four days. The larvae were reared until adult stage. For bioassays purpose only females up to five days old are used. See Flowchart 2, FIG. 2 for detailed explanation of this experiment.
# Bottles were prepared following the Brogdon and McAllister (1998) protocol [Brogdon and McAllister (1998) Emerg Infect Dis 4:605-613]. Fifteen-twenty non-blood-fed females from each site were introduced in 250 mL glass bottles impregnated with different concentrations of deltamethrin (Sigma-Aldrich) in 1 ml acetone. Each test consisted of four impregnated bottles and one control bottle. The control bottle contained acetone with no insecticide. At least three tests were conducted for each insecticide and population. Immediately prior to use, all insecticide solutions were prepared fresh from stock solutions. At 15, 30 and 45 min intervals, the number of live and dead mosquitoes in each bottle was recorded. The mortality criteria included mosquitoes with difficulties flying or standing on the bottle's surface. Mosquitoes that survived the appropriate dose for insecticide were considered to be resistant [Brogdon and McAllister (1998), supra].
# Cubes of dsRNA-containing mosquito food were prepared as follows: First, 300 μg of dsRNA were mixed with 30 μg of Polyethylenimine 25 kD linear (Polysciences) in 200 μL of sterile water. Then, a suspension of ground mosquito larval food (6 grams/100 mL) was prepared with 2% agarose (Fisher Scientific). The food/agarose mixture was heated to 55° C. and 200 μL of the mixture was then transferred to the tubes containing 200 μL of dsRNA+PEI or water only (control). The mixture was then allowed to solidify into a gel. The solidified gel containing both the food and dsRNA was cut into small pieces (approximately 1 mm thick) using a razor blade, which were then used to feed mosquito larvae in water.
# [2] = tested on: sodium channel (AAEL008297) mRNA; experiment: qPCR analysis of sodium channel mRNA expression after dsRNA treatment
# Method: as §1
# Total RNA was extracted from groups of five Ae. aegypti fourth instar larvae and early adult male/female Ae. aegypti, using TRIzol (Invitrogen, Carlsbad, Calif., USA) according to the manufacturer's instructions. RNA was treated with amplification grade DNase I (Invitrogen) and 1 μg was used to synthesize cDNA using a First Strand cDNA Synthesis kit (Invitrogen). PCR products were purified using a QIAquick PCR purification kit (Qiagen). The MEGAscript RNAi kit (Ambion) was then used for in vitro transcription and purification of dsRNAs. See Flowchart 4, FIG. 4 for detailed explanation production off dsRNA.
# Approximately 1000 ng first-strand cDNA obtained as described previously was used as template. The qPCR reactions were performed using SYBR® Green PCR Master Mix (Applied Biosystems) following the manufacturer's instructions. […] Raw quantification cycle (Cq) values normalized against those of the tubulin and S7 standards were then used to calculate the relative expression levels in samples using the 2^−ΔΔct method [Livak & Schmittgen, (2001) Methods. […]
# [3] = tested on: P-glycoprotein (AAEL010379) mRNA; experiment: qPCR analysis of P-glycoprotein mRNA expression after dsRNA treatment; conditions: vs water
# Method: as §1
# Total RNA was extracted from groups of five Ae. aegypti fourth instar larvae and early adult male/female Ae. aegypti, using TRIzol (Invitrogen, Carlsbad, Calif., USA) according to the manufacturer's instructions. […]
# Approximately 1000 ng first-strand cDNA obtained as described previously was used as template. […] Raw quantification cycle (Cq) values normalized against those of the tubulin and S7 standards were then used to calculate the relative expression levels in samples using the 2^−ΔΔct method [Livak & Schmittgen, (2001) Methods. […]
molecule,measurement,setting,value
"sodium channel dsRNA: dsRNA targeting Ae. aegypti sodium channel (AAEL008297), SEQ ID NO: 1825",susceptibility of adult mosquitoes to deltamethrin (mortality rate),"[1]; 3rd instar larvae soaked 24 h in 0.5 μg/μL naked dsRNA vs water, adult females exposed to deltamethrin 0.5 μg/bottle",increased susceptibility
same,susceptibility of adult mosquitoes to deltamethrin (mortality rate),"[1]; 3rd instar larvae soaked 24 h in 0.5 μg/μL naked dsRNA vs water, adult females exposed to deltamethrin 0.5 μg/bottle, listed as dsRNA against sodium channel",increased substantially the susceptibility
same,susceptibility of adult mosquitoes to deltamethrin (mortality rate),"[1]; larvae soaked 24 h in 0.5 μg/μL dsRNA, then fed 4 times with food-containing dsRNA, adult females, deltamethrin 0.5 μg/bottle",increased susceptibility
same,susceptibility of adult mosquitoes to deltamethrin (mortality rate),"[1]; larvae soaked 24 h in 0.5 μg/μL dsRNA, then fed 4 times with food-containing dsRNA, adult females, deltamethrin 0.5 μg/bottle, listed as dsRNA against sodium channel",increased the susceptibility
same,sodium channel mRNA expression level,"[2]; adult female mosquitoes soaked as larvae, collected before deltamethrin treatment, vs water",decreased expression
same,sodium channel mRNA expression level,"[2]; dead female mosquitoes collected after exposure to deltamethrin, compared to water-treated mosquitoes",striking decrease
same,sodium channel mRNA levels,"[2]; larvae soaked 24 h in dsRNA, 24 and 48 hours after the end of dsRNA treatment, vs water",decreased mRNA levels
"PgP: dsRNA targeting P-glycoprotein (AAEL010379), SEQ ID NO: 1822 (nucleic acid, double stranded RNA) TGGAAAAGTTGACATTGACGGGATCACGACAACTGATTTCCAGCTTGGCCGCATACGTTCACAAATGGGTCTCGTATCGCAAGAACCTGTTCTGTTTGATCGCACCATCGCGGAAAATATTGCTTATGGTGACAACACTCGCGAGATAAGCATGCCGGAGATAATCGAGGCATCCAAAATGGCAAACATTCACGAATTCATCGTCAATCTACCGAAGGGGTATGACACTAGCCTAGGAACCAAAGGAGCTCAATTGTCTGGTGGCCAAAAGCAACGTATTGCTATAGCTCGTGCTTTGGTTAGAAATCCACGAATCC",PgP mRNA expression,[3]; adult mosquitoes soaked with dsRNA as larvae,reached normal levels
same,PgP mRNA levels,"[3]; larvae soaked 24 h in dsRNA, 24 and 48 hours after the end of dsRNA treatment",decreased mRNA levels
"Cytochrome p450 (CYP9J26): dsRNA targeting Cytochrome p450 (CYP9J26, JF924909.1), SEQ ID NO: 1824 (nucleic acid, double stranded RNA) CTTCAACGACTTCGTCCGATCAATTTACAACAAATATCCTGGAGTGAAGGTTTTCGGAATGTTCGAGACGATCACGCCGTTCTTCGTGATTCGCGATCCGGAGTTGATCAAGCAGATCGGCATCAAGGATTTCGATCACTTCGTTGACCACCGTCCGACGTTCGGACTGGACGATGAAACGGCGGAGCATCCGAAGGCGCTGTTCCGCAAGACGCTGTTCTCGATGACCGGTCAACGGTGGAAGGAGATGCGCGCTACGCTGAGTCCGGCTTTTACCGGCAGTAAGATGCGACAGATGTTCTCGCTGATGAGCGAATGCTGCGACGAAATGATGAAGCACTACCTGGACAAGGCGAAGGGCACGGGAAGGGTGGAAGTCGAAATGAAGGACTTGCTGAGTCGAATCACTATCAATGTGATTGCGTCGTGTGCTTTTGGAATCAAGGTGGAC",susceptibility of adult mosquitoes to deltamethrin (mortality rate),"[1]; larvae soaked 24 h in 0.1 μg/μL dsRNA, then fed 4 times with food-containing dsRNA, adult females, deltamethrin 0.5 μg/bottle, first 15 minutes of contact",more sensitive
same,susceptibility of adult mosquitoes to deltamethrin (mortality rate),"[1]; larvae soaked 24 h in 0.1 μg/μL dsRNA, then fed 4 times with food-containing dsRNA, adult females, deltamethrin 0.5 μg/bottle, first 15 minutes of contact, listed as CYP9J29 dsRNA",affects the susceptibility
